Results published in the NIST ThermoML archive (doi:10.1021/acs.jced.8b00063).
Values joined by “and” are separate entries in the source; they are usually repeats but may differ in a detail not shown here. Identical values can stand only once.

Experiments:
[1] = refractive index (Na D-line) (dimensionless); xn = mol fraction of the nth substance listed; settings: 293.15 K, 93.9 kPa, Liquid, Standard Abbe refractometry
[2] = Liquid, Ebulliometric method (Recirculating still)
[3] = refractive index (Na D-line) (dimensionless); settings: Liquid, Standard Abbe refractometry

COc1ccccc1 [anisole] + CC(=O)OC(C)C
Settings	refractive index
[1], x2 = 0	1.5167

CC(=O)OC(C)C [1-methylethyl ethanoate]
Settings	vapor or sublimation pressure [kPa]
[2], 359.68 K	93.9

[3]
Settings	refractive index
293.15 K, 93.9 kPa	1.3774
298.15 K, 101.33 kPa	1.37739

CCOC(C)=O [ethyl acetate] + COc1ccccc1
Settings	refractive index
[1], x1 = 1	1.3724

COC(C)=O [methyl ethanoate] + COc1ccccc1
Settings	refractive index
[1], x1 = 1	1.3615

COC(C)=O [methyl ethanoate]
Settings	vapor or sublimation pressure [kPa]
[2], 327.9 K	93.9

[3]
Settings	refractive index
293.15 K, 93.9 kPa	1.3615
298.15 K, 101.33 kPa	1.36146

COc1ccccc1 [anisole] + COC(C)=O
[1]
Settings	refractive index
x2 = 0	1.5168
x2 = 0.1432	1.4995
x2 = 0.1704	1.497
x2 = 0.2986	1.4855
x2 = 0.3004	1.4826
x2 = 0.3323	1.4777
x2 = 0.41	1.4692
x2 = 0.4439	1.4625
x2 = 0.5057	1.4542
x2 = 0.5405	1.451
x2 = 0.6003	1.4372
x2 = 0.6354	1.4327
x2 = 0.6972	1.4233
x2 = 0.814	1.3994
x2 = 0.8577	1.3909
x2 = 0.9391	1.3743

CCCOC(C)=O [propyl ethanoate] + COc1ccccc1
Settings	refractive index
[1], x1 = 1	1.3841

COc1ccccc1 [anisole] + CCCOC(C)=O
[1]
Settings	refractive index
x2 = 0	1.5168
x2 = 0.1119	1.5019
x2 = 0.1399	1.4979
x2 = 0.1575	1.4954
x2 = 0.2187	1.4875
x2 = 0.2418	1.4844
x2 = 0.3387	1.4706
x2 = 0.354	1.4687
x2 = 0.4168	1.4603
x2 = 0.4759	1.4525
x2 = 0.533	1.4451
x2 = 0.5833	1.4381
x2 = 0.6096	1.435
x2 = 0.6683	1.4268
x2 = 0.7081	1.4203
x2 = 0.8047	1.4093
x2 = 0.8978	1.3968

CCOC(C)=O [ethyl acetate]
Settings	vapor or sublimation pressure [kPa]
[2], 347.92 K	93.9

[3]
Settings	refractive index
293.15 K, 93.9 kPa	1.3724
298.15 K, 101.33 kPa	1.37244

CC(=O)OC(C)C [1-methylethyl ethanoate] + COc1ccccc1
[1]
Settings	refractive index
x1 = 0.1058	1.5013
x1 = 0.1227	1.499
x1 = 0.1703	1.4924
x1 = 0.1794	1.4915
x1 = 0.2163	1.4872
x1 = 0.2803	1.4768
x1 = 0.3303	1.4727
x1 = 0.3684	1.4673
x1 = 0.4254	1.4561
x1 = 0.4928	1.4481
x1 = 0.5116	1.4445
x1 = 0.5769	1.4361
x1 = 0.6338	1.4272
x1 = 0.7247	1.4154
x1 = 0.8136	1.4026
x1 = 0.9006	1.3903
x1 = 1	1.3774

COc1ccccc1 [anisole] + CCOC(C)=O
[1]
Settings	refractive index
x2 = 0	1.5168
x2 = 0.1318	1.5002
x2 = 0.1651	1.4954
x2 = 0.1818	1.4935
x2 = 0.2131	1.4896
x2 = 0.2301	1.4867
x2 = 0.3334	1.4735
x2 = 0.3472	1.4712
x2 = 0.4119	1.4619
x2 = 0.4709	1.4548
x2 = 0.4899	1.4518
x2 = 0.5481	1.4426
x2 = 0.6353	1.431
x2 = 0.6467	1.4243
x2 = 0.718	1.4201
x2 = 0.7382	1.4142
x2 = 0.8354	1.3989
x2 = 0.9091	1.3874

CCCOC(C)=O [propyl ethanoate]
Settings	vapor or sublimation pressure [kPa]
[2], 372.17 K	93.9

[3]
Settings	refractive index
293.15 K, 93.9 kPa	1.3841
298.15 K, 101.33 kPa	1.38406

COc1ccccc1 [anisole]
Settings	vapor or sublimation pressure [kPa]
[2], 423.92 K	93.9

[3]
Settings	refractive index
293.15 K, 93.9 kPa	1.5168 and 1.5167
298.15 K, 101.33 kPa	1.51554
